Read-outs that look alike come from different tables or passages of the source.
What was measured:
[1] = tested on: Trypanosoma brucei brucei strain 427–221; experiment: Trypanosome screening assay (CellTiter-Glo ATP bioluminescence, 48 h); format: cell-based; conditions: Trypanosoma brucei, read-out: T.b.b IC50
Description: Trypanosoma brucei brucei strain 427–221 were grown at 37°C, 5% CO2 in HMI-9 medium containing 10% Fetal Bovine Serum, 10% Serum Plus (JRH Inc., Lenexa, KS,USA) and penicillin/streptomycin.
T.b.b. 427–221 were diluted to 2.10^4 per ml in complete HMI-9 medium and aliquoted in Greiner sterile 384-well flat white opaque culture plates using a WellMate cell dispenser from Matrix Tech. (Hudson, NH, USA). Test compounds were serially diluted in dimethyl sulfoxide (DMSO) and added to the assay plates with the robotic dispenser Biomek FXp liquid handler (Beckman Coulter). Thimerosal (2 µM final concentration) was added as a positive control and DMSO as a negative control (1% final concentration). Trypanosomes were incubated with compounds for 48 hours at 37°C with 5% CO2 before monitoring cell viability as previously described. Briefly, trypanosomes were lysed in the wells by adding 25 µL of CellTiter-GloTM (Promega). The lysed trypanosomes were placed on an orbital shaker at room temperature for 2 minutes. After lysis, the resulting ATP-bioluminescence was measured at room temperature using an Analyst HT plate reader (Molecular Devices). Percentage inhibition of parasite growth was calculated for each well as [1−(RLUx−RLU+)/(RLU−−RLU+)]*100 where RLUx, RLU+ and RLU− are respectively the Relative Light Units for each well, positive (thimerosal) and negative (DMSO) controls. A screening window coefficient, denoted Z′ factor, was used to evaluate the performance of the assay. The Z′ factor, calculated as 1−(3σc++3σc−)/(μc+−μc−) where σc+, σc−, μc+ and μc− are respectively the standard deviation and mean values of positive and negative controls, is reflective of the assay signal dynamic range and the data variation associated with signal measurement. IC50's were calculated using Prism (GraphPad).

[2] = treatment of second stage infection (CNS infection); estimated; cited from earlier work
T.b.b 427–221 = experiment: Live trypanosome fluorescence imaging; format: cell-based, Trypanosoma brucei brucei; conditions: 20 µM, 2 hours, washed, 1 hour compound-free medium
Description: To explore the intracellular of distribution the coumarin-labeled derivative 30, parasites were incubated with 20 µM of 30 for 2 hours, washed once, and incubated in compound-free medium for 1 hour prior to microscopy. […] Although visualization of labeled merulin A in live cell imaging is an encouraging observation, further experiments are required to determine the precise localization and potential function of these compounds against T. brucei.
T.b.b 427–221 diluted to […] in complete HMI-9 medium were incubated with either 20 µM of compound 30, 20 µM of the free coumarin dye or 30 µM of compound 17 at 37°C for 2 hours. The parasites were then washed once with complete HMI-9 medium and incubated in compound-free complete HMI-9 medium for 1 additional hour. Parasites were directly mounted under coverslips and viewed with 100×-oil immersion on a Zeiss Laser Confocal microscope LSM 510 Meta.

HeLa cells = experiment: HeLa toxicity screening assay (nuclei count by imaging, 17 h); format: cell-based, human; conditions: for IC50: Homo sapiens, HeLa
Description: (§1) HeLa cells were plated at a density of 2,000 cells per well into two 384 well clear bottom plates (Costar 3712) in DMEM with 10% FBS. After 24 hours incubation at 37°C with 5% CO2 the cells were pinned with 200 nL of a two-fold serial dilution of merulin analogues. After 17 hours of treatment at 37°C in 5% CO2 the plates were fixed with 4% formaldehyde and washed with PBS (BioTek ELx405). After 10 minutes in PBS with 0.5% TritonX-100 each plate was washed and blocked with 2% Bovine Serum Albumin in PBS. Nuclei were stained with Hoechst 33342 then washed and placed in 40 µL of PBS with 0.1% sodium azide. Plates were imaged using the ImageXpress Micro epifluorescent scope (Molecular Devices). MetaXpress software was used to quantify total number of cells and IC50s were calculated using Prism (GraphPad).

T98-G cells = experiment: Glioblastoma toxicity screening assay (nuclei count by imaging, 17 h); format: cell-based; conditions: Homo sapiens, T98G; Figure 4
Description: as §1, with “T98-G cells (ATTC” for “HeLa cells were”, “T98-G cells (ATTC number: CRL-1690) were plated” for “HeLa cells were plated”

IC50 ([1]; Figure 4, bloodstream form)	Compound	fluorescence detected in live parasites (T.b.b 427–221)	IC50 (HeLa cells; Figure 4)	IC50 (T98-G cells)	other results
–	Nc1nc(N)nc(Nc2ccc([As]3SCC(CO)S3)cc2)n1 (stereo not drawn) [Melarsoprol, reference compound]	–	–	–	IC50 [1]: 0.002 µM; mortality rate due to drug-associated toxicity [2]: three to ten
–	CC1(C)CCC(=O)[C@@]2(C)OO[C@@H]3C[C@@]12CC[C@H]3O [compound 1, merulin A]	No fluorescence was detected	> 50 µM	> 50 µM	IC50 ([1]; Table 3): 4 µM
0.21 µM	CC1(C)CCC(=O)[C@@]2(C)OO[C@H]3C[C@@]12CC[C@H]3OC(=O)c1ccc(N2CCCCC2)nc1 [compound 26, (3S,4R,6aS,10aS)-7,7,10a-trimethyl-10-oxooctahydro-3H-3,6a-methanobenzo[c][1,2]dioxocin-4-yl 6-(piperidin-1-yl)nicotinate]	–	24 µM	15 µM	–
0.16 µM	CC(C)(C)OC(=O)N1CCC(CC(=O)O[C@@H]2CC[C@@]34C[C@@H]2OO[C@]3(C)C(=O)CCC4(C)C)CC1 [compound 27, tert-butyl-4-(2-oxo-2-(((3S,4R,6aS,10aS)-7,7,10a-trimethyl-10-oxooctahydro-3H-3,6a-methanobenzo[c][1,2]dioxocin-4-yl)oxy)ethyl)piperidine-1-carboxylate]	–	33 µM	> 50 µM	–
0.16 µM	CC1(C)CCC(=O)[C@@]2(C)OO[C@H]3C[C@@]12CC[C@H]3OC(=O)CC1CCNCC1 [compound 28, (3S,4R,6aS,10aS)-7,7,10a-trimethyl-10-oxooctahydro-3H-3,6a-methanobenzo[c][1,2]dioxocin-4-yl 2-(piperidin-4-yl)acetate]	–	21 µM	> 50 µM	–
> 20 µM	CC1(C)CCC(=O)[C@@]2(C)OO[C@H]3C[C@@]12CC[C@H]3OC(=O)CN [compound 29, (3S,4R,6aS,10aS)-7,7,10a-trimethyl-10-oxooctahydro-3H-3,6a-methanobenzo[c][1,2]dioxocin-4-yl 2-aminoacetate]	–	> 50 µM	> 50 µM	–
–	CN(C)c1ccc2c(CC(=O)O[C@@H]3CC[C@@]45C[C@@H]3OO[C@]4(C)C(=O)CCC5(C)C)cc(=O)oc2c1 [compound 30, (3S,4R,6aS,10aS)-7,7,10a-trimethyl-10-oxooctahydro-3H-3,6a-methanobenzo[c][1,2]dioxocin-4-yl 2-(7-(dimethylamino)-2-oxo-2H-chromen-4-yl)acetate]	Diffuse cytoplasmic fluorescent signal	–	> 50 µM	IC50 ([1]; Table 3): 0.42 µM; SI (HeLa cells; HeLa vs T. brucei): > 125; IC50 (HeLa cells): > 50 µM
–	CN(C)c1ccc2c(CC(=O)NCCNC(=O)CCc3ccccc3)cc(=O)oc2c1 [compound 31, N-(2-(2-(7-(dimethylamino)-2-oxo-2H-chromen-4-yl)acetamido)ethyl)-3-phenylpropanamide]	No fluorescence was detected	–	–	–

Source: article PMC3459870, “Hit-to-Lead Development of the Chamigrane Endoperoxide Merulin A for the Treatment of African Sleeping Sickness” (PLoS ONE, 2012)
